Reference: ChEMBL document CHEMBL3763051, “Inhibition of phosphatidylinositol-3,4,5-trisphosphate binding to the AKT pleckstrin homology domain by 4-amino-1,2,5-oxadiazole derivatives” (Medchemcomm, 2015)
Active and inactive are the calls of the source. The calls are words filed in the database; no cut-off is given here.

Columns and labels:
[1] = molecular target: T1, RAC-alpha serine/threonine-protein kinase (Homo sapiens, UniProt P31749); assay: Antagonist activity at human AKT1-PH domain (1 to 121 residues) assessed as reduction of AKT1-PH interaction with PC/PE/PS/PI(3,4,5)P3 at 50 uM after 30 mins by competitive SPR analysis relative to control
T1 sequence (P31749 whole entry, the tested form may be a part): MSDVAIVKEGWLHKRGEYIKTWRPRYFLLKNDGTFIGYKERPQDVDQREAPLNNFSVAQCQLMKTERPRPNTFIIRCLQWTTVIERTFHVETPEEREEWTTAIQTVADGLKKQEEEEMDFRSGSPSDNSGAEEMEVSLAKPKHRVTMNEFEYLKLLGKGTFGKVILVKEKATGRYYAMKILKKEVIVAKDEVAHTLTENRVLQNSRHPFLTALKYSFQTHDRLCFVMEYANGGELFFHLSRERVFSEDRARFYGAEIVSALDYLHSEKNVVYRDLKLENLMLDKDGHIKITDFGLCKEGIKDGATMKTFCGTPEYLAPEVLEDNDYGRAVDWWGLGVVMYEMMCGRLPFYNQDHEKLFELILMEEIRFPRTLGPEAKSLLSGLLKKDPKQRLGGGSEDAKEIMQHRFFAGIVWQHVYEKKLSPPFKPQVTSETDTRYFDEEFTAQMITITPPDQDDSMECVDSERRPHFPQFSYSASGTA

[2] = molecular target: T1, RAC-alpha serine/threonine-protein kinase; assay: Antagonist activity at human AKT1-PH domain (1 to 121 residues) assessed as reduction of AKT1-PH interaction with PC/PE/PS/PI(3,4,5)P3 after 30 mins by competitive SPR analysis
[3] = Cytotoxicity against human MDA-MB-231 cells assessed as inhibition of cell proliferation at 1 to 100 uM after 48 hrs by MTT assay; assay type: cell-based; details: read-out: %max
[4] = Effect on membrane fluidity in PC/PE/PS liposome assessed as DPH probe anisotropy changes at 15 uM incubated for 30 mins by fluorescence anisotropic analysis; assay type: ADME; details: artificial membrane, 0.5 h
[5] = Effect on membrane fluidity in PC/PE/PS liposome assessed as NBD-PE probe anisotropy changes at 15 uM incubated for 30 mins by fluorescence anisotropic analysis; assay type: ADME; details: artificial membrane, 0.5 h
[6] = molecular target: T2, Cytohesin-3 (Mus musculus) (UniProt O08967); assay: Antagonist activity at mouse GRP1-PH domain (1 to 127 residues) assessed as reduction in PI(3,4,5)P3/GRP1-PH interaction at 50 uM after 30 mins by competitive SPR analysis relative to control
T2 sequence (whole entry): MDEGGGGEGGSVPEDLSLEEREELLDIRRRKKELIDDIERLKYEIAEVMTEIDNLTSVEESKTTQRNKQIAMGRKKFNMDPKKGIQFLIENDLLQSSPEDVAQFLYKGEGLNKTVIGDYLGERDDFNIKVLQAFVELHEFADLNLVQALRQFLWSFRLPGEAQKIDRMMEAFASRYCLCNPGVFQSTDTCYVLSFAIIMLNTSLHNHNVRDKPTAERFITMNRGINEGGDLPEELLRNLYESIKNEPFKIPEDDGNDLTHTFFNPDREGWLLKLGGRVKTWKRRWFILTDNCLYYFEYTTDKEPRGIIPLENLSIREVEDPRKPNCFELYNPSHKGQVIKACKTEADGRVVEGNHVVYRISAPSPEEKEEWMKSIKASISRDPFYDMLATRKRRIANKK

Cytohesin-3 = molecular target: T3, Cytohesin-3 (Mus musculus, UniProt O08967); assay: Antagonist activity at mouse GRP1-PH domain (1 to 127 residues) assessed as reduction in PI(3,4,5)P3/GRP1-PH interaction after 30 mins by competitive SPR analysis
T3 sequence (O08967 whole entry): T2 sequence (whole entry)

[7] = molecular target: T4, Tyrosine-protein kinase BTK (Homo sapiens, UniProt Q06187); assay: Antagonist activity at human BTK-PH domain (2 to 170 residues) assessed as reduction in PI(3,4,5)P3/BTK-PH interaction at 50 uM after 30 mins by competitive SPR analysis relative to control
T4 sequence (Q06187 whole entry, the tested form may be a part): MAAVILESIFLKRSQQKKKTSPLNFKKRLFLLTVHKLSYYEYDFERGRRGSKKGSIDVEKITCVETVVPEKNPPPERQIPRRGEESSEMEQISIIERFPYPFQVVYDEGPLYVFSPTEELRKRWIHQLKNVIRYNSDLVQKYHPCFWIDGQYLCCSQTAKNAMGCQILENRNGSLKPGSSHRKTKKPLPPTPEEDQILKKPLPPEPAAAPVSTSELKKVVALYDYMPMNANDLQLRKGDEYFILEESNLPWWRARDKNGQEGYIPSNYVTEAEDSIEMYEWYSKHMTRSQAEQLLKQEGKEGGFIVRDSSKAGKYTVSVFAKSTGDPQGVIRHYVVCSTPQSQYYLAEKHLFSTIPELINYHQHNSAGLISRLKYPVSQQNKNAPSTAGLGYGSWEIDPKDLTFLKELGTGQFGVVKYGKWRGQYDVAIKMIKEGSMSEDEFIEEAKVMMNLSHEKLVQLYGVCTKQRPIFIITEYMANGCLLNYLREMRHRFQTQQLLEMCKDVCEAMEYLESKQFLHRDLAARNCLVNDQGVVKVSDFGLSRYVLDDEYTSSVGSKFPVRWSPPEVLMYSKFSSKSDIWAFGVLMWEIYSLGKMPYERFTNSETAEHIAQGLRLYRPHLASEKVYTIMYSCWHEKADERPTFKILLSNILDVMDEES

[8] = molecular target: T4, Tyrosine-protein kinase BTK; assay: Antagonist activity at human BTK-PH domain (2 to 170 residues) assessed as reduction in PI(3,4,5)P3/BTK-PH interaction after 30 mins by competitive SPR analysis
[9] = molecular target: Pleckstrin homology domain-containing family A member 1 (Homo sapiens, UniProt Q9HB21); assay: Antagonist activity at human Tapp1-PH domain (180 to 305 residues) assessed as reduction in PI(3,4)P2/Tapp1-PH interaction after 30 mins by competitive SPR analysis
Sequence of Pleckstrin homology domain-containing family A member 1 (Q9HB21 whole entry, the tested form may be a part): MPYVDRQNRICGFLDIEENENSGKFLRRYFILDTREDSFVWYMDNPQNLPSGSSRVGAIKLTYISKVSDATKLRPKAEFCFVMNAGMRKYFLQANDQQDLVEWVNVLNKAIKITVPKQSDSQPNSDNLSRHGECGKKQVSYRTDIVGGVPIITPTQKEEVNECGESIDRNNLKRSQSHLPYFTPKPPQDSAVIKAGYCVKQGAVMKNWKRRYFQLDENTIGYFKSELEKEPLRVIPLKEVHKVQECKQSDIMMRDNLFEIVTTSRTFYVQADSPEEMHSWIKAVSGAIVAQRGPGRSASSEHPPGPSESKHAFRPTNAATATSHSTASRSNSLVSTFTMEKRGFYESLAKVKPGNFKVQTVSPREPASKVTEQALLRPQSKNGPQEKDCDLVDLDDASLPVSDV

[10] = molecular target: T1, RAC-alpha serine/threonine-protein kinase; assay: Antagonist activity at human AKT1-PH domain (1 to 121 residues) assessed as reduction in PI(3,4,5)P3/AKT1-PH interaction by FRET analysis
[11] = molecular target: T1, RAC-alpha serine/threonine-protein kinase; assay: Antagonist activity at GST-tagged human AKT1-PH domain (1 to 121 residues) assessed as reduction in PC/PE/PS/PI(3,4,5)P3/AKT1-PH interaction at 50 uM by liposome pull-down assay
[12] = Cytotoxicity against human MDA-MB-231 cells assessed as inhibition of cell proliferation at 100 uM after 48 hrs by MTT assay; assay type: cell-based
[13] = Effect on surface charge of PC/PE/PS/PI(3,4,5)P3 liposome by measuring zeta-potential by light scattering spectrometric analysis; assay type: physicochemical; details: artificial membrane
[14] = molecular target: T1, RAC-alpha serine/threonine-protein kinase; assay: Induction of human AKT1-PH aggregration assessed as mean hydrodynamic diameter after 10 mins dynamic light scattering assay
[15] = molecular target: T1, RAC-alpha serine/threonine-protein kinase; assay: Binding affinity to human AKT1-PH domain assessed as change in beta-sheet content at 1:3 molar ratio of protein to compound by CD spectra analysis
[16] = molecular target: T1, RAC-alpha serine/threonine-protein kinase; assay: Binding affinity to human AKT1-PH domain assessed as enthalpy change by isothermal titration calorimetric analysis
[17] = molecular target: T1, RAC-alpha serine/threonine-protein kinase; assay: Binding affinity to human AKT1-PH domain assessed as entropy change by isothermal titration calorimetric analysis
[18] = molecular target: T5, 1-phosphatidylinositol 4,5-bisphosphate phosphodiesterase delta-1 (Rattus norvegicus, UniProt P10688); assay: Antagonist activity at rat PLCdelta1-PH domain assessed as reduction in PI(4,5)P2/PLCdelta1-PH interaction after 30 mins by competitive SPR analysis
T5 sequence (P10688 whole entry): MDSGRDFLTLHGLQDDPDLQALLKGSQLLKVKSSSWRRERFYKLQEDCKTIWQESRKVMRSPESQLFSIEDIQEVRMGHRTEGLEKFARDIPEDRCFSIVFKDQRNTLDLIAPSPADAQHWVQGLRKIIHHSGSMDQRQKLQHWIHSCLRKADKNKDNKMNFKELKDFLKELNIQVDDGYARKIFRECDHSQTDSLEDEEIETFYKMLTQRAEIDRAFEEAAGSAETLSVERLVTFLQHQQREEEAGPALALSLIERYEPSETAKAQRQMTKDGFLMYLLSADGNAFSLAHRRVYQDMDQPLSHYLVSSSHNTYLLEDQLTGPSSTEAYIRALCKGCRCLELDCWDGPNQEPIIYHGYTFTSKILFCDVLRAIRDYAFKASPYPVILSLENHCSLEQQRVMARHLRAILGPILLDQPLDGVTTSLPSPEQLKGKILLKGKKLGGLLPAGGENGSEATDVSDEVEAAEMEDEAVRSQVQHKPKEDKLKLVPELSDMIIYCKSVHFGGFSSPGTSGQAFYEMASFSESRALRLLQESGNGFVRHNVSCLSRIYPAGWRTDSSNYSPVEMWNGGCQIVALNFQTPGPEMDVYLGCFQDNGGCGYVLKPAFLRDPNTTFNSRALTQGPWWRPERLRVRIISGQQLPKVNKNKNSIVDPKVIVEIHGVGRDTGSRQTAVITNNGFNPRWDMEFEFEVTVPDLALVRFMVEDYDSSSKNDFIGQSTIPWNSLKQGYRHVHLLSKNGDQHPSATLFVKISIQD

[19] = molecular target: T1, RAC-alpha serine/threonine-protein kinase; assay: Inhibition of AKT1 phosphorylation at Thr-308 in human MDA-MB-231 cells at 25 uM after 48 hrs by immunoblot analysis; assay type: cell-based

inhibition [1]	IC50 [2]	Activity [4]	Activity [5]	inhibition [6]	IC50 (Cytohesin-3)	inhibition [7]	IC50 [8]	Compound	Emax at 48 h [3]	inhibition [2]	IC50 [9]	inhibition [10]	inhibition [11]	Activity [13]	Activity [14]	Activity [15]	Activity [16]	Activity [17]	IC50 [18]	also measured
80%	16.4 µM	Not Active	Active					N=C(N/C(=N/O)c1nonc1N)c1ccccc1Br	20%											
54%	7.19 µM	Not Active	Active	55%	11.5 µM			N=C(N/C(=N/O)c1nonc1N)c1ccccc1	20%											
74%	8.61 µM	Not Active	Active	59%	16.6 µM	79%	3.18 µM	N=C(N/C(=N/O)c1nonc1N)c1ccccc1N	20%											
92%	3.23 µM	Not Active	Active	67%	11.5 µM	11%	46.5 µM	N=C(N/C(=N/O)c1nonc1N)N1CCCN=C1N	20%	Dose-dependent effect	5 µM	Dose-dependent effect	Active	Not Active	190 nm	Active	Active	Active	28 µM	inhibition [19]: Active

Compound	inhibition [1]	IC50 [2]	Activity [4]	Activity [5]	inhibition [6]	IC50 (Cytohesin-3)	inhibition [7]	IC50 [8]	Emax at 48 h [3]	inhibition [2]	IC50 [9]	inhibition [10]	inhibition [11]	Activity [13]	Activity [14]	Activity [15]	Activity [16]	Activity [17]	IC50 [18]	also measured
N=C(N)NC(=N)N/C(=N/O)c1nonc1N	95%	1.85 µM	Not Active	Active	56%	24.9 µM	40%	10.9 µM		Dose-dependent effect	28 µM	Dose-dependent effect	Active	Not Active	190 nm	Active	Active	Active	54 µM	inhibition at 48 h, 100 µM [12]: 10%
